According to the supplement of paper PMC10307832:

What was measured:
Test in all cases: relative viability (nuclei count vs DMSO), 5 days (fraction); higher = more cells survive
AZD8055 + Linsitinib = compound: COc1ccc(-c2ccc3c(N4CCOC[C@@H]4C)nc(N4CCOC[C@@H]4C)nc3n2)cc1CO [AZD8055] + C[C@]1(O)C[C@@H](c2nc(-c3ccc4ccc(-c5ccccc5)nc4c3)c3c(N)nccn32)C1 [Linsitinib] (partner 1 µM)
How it was run: (§1)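 Lung cancer cell lines were pin-tool dosed in 1536-well plates on the day after seeding, with either a lone drug or a fixed anchor-drug dose plus five library-drug doses (not always all listed) in √10 steps. Nuclei were counted on 4× images after 5 days. Relative viability is the ratio of treated-well to vehicle-well nuclei counts, with each value a median of duplicate plates.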

AZD8055 + Pictilisib = compound: COc1ccc(-c2ccc3c(N4CCOC[C@@H]4C)nc(N4CCOC[C@@H]4C)nc3n2)cc1CO [AZD8055] + CS(=O)(=O)N1CCN(Cc2cc3nc(-c4cccc5[nH]ncc45)nc(N4CCOCC4)c3s2)CC1 [Pictilisib] (partner 1 µM)
How it was run: as §1

AZD8055 + Alpelisib = compound: COc1ccc(-c2ccc3c(N4CCOC[C@@H]4C)nc(N4CCOC[C@@H]4C)nc3n2)cc1CO [AZD8055] + Cc1nc(NC(=O)N2CCC[C@H]2C(N)=O)sc1-c1ccnc(C(C)(C)C(F)(F)F)c1 [Alpelisib] (partner 2 µM)
How it was run: as §1

AZD8055 + Decitabine = compound: COc1ccc(-c2ccc3c(N4CCOC[C@@H]4C)nc(N4CCOC[C@@H]4C)nc3n2)cc1CO [AZD8055] + Nc1ncn([C@H]2C[C@H](O)[C@@H](CO)O2)c(=O)n1 [Decitabine] (partner 2 µM)
How it was run: as §1

| Cell Line | relative viability (AZD8055 + Linsitinib; first compound 0.01 µM) | relative viability (AZD8055 + Linsitinib; first compound 0.03162 µM) | relative viability (AZD8055 + Linsitinib; first compound 0.1 µM) | relative viability (AZD8055 + Linsitinib; first compound 0.3162 µM) | relative viability (AZD8055 + Linsitinib; first compound 1 µM) | relative viability (AZD8055 + Pictilisib; first compound 0.01 µM) | relative viability (AZD8055 + Pictilisib; first compound 0.03162 µM) | relative viability (AZD8055 + Pictilisib; first compound 0.1 µM) | relative viability (AZD8055 + Pictilisib; first compound 0.3162 µM) | relative viability (AZD8055 + Pictilisib; first compound 1 µM) | relative viability (AZD8055 + Alpelisib; first compound 0.01 µM) | relative viability (AZD8055 + Alpelisib; first compound 0.03162 µM) | relative viability (AZD8055 + Alpelisib; first compound 0.1 µM) | relative viability (AZD8055 + Alpelisib; first compound 0.3162 µM) | relative viability (AZD8055 + Alpelisib; first compound 1 µM) | relative viability (AZD8055 + Decitabine; first compound 0.01 µM) | relative viability (AZD8055 + Decitabine; first compound 0.03162 µM) | relative viability (AZD8055 + Decitabine; first compound 0.1 µM) | relative viability (AZD8055 + Decitabine; first compound 0.3162 µM) | relative viability (AZD8055 + Decitabine; first compound 1 µM) |
| --- | --- | --- | --- | --- | --- | --- | --- | --- | --- | --- | --- | --- | --- | --- | --- | --- | --- | --- | --- | --- |
| NCI-H2087 | 0.907 | 0.905 | 0.679 | 0.411 | 0.367 | 1.06 | 0.704 | 0.574 | 0.446 | 0.328 | 0.996 | 0.924 | 0.809 | 0.44 | 0.381 | 0.28 | 0.182 | 0.236 | 0.153 | 0.113 |
| LU99A | 0.316 | 0.306 | 0.196 | 0.203 | 0.184 | 0.281 | 0.18 | 0.168 | 0.195 | 0.22 | 0.32 | 0.261 | 0.158 | 0.189 | 0.228 | 1 | 0.666 | 0.417 | 0.222 | 0.188 |
| HCC-366 | 0.539 | 0.245 | 0.218 | 0.0598 | 0.0927 | 0.0713 | 0.137 | 0.132 | 0.0885 | 0.0934 | 0.479 | 0.243 | 0.169 | 0.0661 | 0.07 | 0.392 | 0.233 | 0.281 | 0.144 | 0.14 |
| EKVX | 1.05 | 0.947 | 0.604 | 0.384 | 0.24 | 0.485 | 0.44 | 0.3 | 0.245 | 0.169 | 0.94 | 0.834 | 0.587 | 0.34 | 0.401 | 0.361 | 0.286 | 0.298 | 0.251 | 0.26 |
| NCI-H522 | – | – | – | – | – | – | – | – | – | – | – | – | – | – | – | 0.737 | 0.591 | 0.619 | 0.527 | 0.462 |
| NCI-H1755 | 0.95 | 0.867 | 0.764 | 0.474 | 0.403 | 0.39 | 0.312 | 0.274 | 0.253 | 0.271 | 0.879 | 0.744 | 0.607 | 0.378 | 0.363 | 0.714 | 0.636 | 0.691 | 0.506 | 0.461 |
| NCI-H647 | 1.18 | 0.942 | 0.601 | 0.439 | 0.167 | 0.46 | 0.329 | 0.282 | 0.16 | 0.149 | 0.987 | 0.623 | 0.332 | 0.208 | 0.167 | 0.35 | 0.271 | 0.198 | 0.195 | 0.126 |
| LC-2-ad | 0.852 | 0.803 | 0.56 | 0.414 | 0.397 | 0.464 | 0.458 | 0.322 | 0.339 | 0.255 | 0.841 | 0.827 | 0.697 | 0.42 | 0.402 | 0.911 | 0.729 | 0.788 | 0.835 | 0.67 |
| NCI-H1793 | 0.539 | 0.315 | 0.224 | 0.197 | 0.18 | 0.288 | 0.268 | 0.177 | 0.238 | 0.156 | 0.605 | 0.347 | 0.224 | 0.175 | 0.17 | 0.435 | 0.219 | 0.207 | 0.181 | 0.221 |
